{"source": "patent US20110195910A1", "about": "“USE OF TOCOTRIENOL COMPOSITION FOR THE PREVENTION OF CANCER” (DAVOS LIFE SCIENCE PTE. LTD., priority 2008, published 2011)", "key": {"G361 cells": {"system": "G361 cells", "assay": "Western blotting of epithelial/mesenchymal markers, G361 cells", "assay_type": "cell-based", "conditions": "G361, 24 hrs", "description": "1.1.5 Western blotting—Detailed protocols have been described previously and are known in the art. Briefly, cell lysates were prepared by suspending cell pellets in lysis buffer [50 mmol/l Tris-HCl (pH 8.0), 150 mmol/l NaCl, 1% NP40, 0.5% deoxycholate, 0.1% SDS, 1 mg/ml aprotinin, 1 μg/ml leupeptin and 1 mmol/l phenylmethylsulfonyl fluoride]. For nuclear protein extraction, NucBuster™ protein extraction kit was used. Protein concentration was measured using the DC Protein Assay kit (Bio-Rad, Hercules, Calif.). Equal amount of protein (30 μg) was loaded onto a 10% SDS polyacrylamide gel for electrophoresis and then transferred onto a polyvinylidene difluoride membrane (Amersham, Piscataway, N.J.). The membrane was then incubated with primary antibodies for 1 hr at room temperature against E-cadherin (BD Biosciences, Bedford, Mass.), α-catenin, β-catenin, γ-catenin, Id-1, Id-3, EGFR, phosphor-c-jun, phosphor-ATF2, cleaved PARP, vimentin, α-smooth muscle actin, twist (Santa Cruz Biotechnology, Calif.), phosphor-IkB-alpha (Ser32/36), phosphor-IKK alpha (Seri 80)/IKK beta (Ser181), phosphor-SAPK/JNK (Thr183/Tyr185) G9, SAPK/JNK, NF-kB p65 (5A5) (Cell Signaling Technology Inc, Beverly, Mass.), Snail (Abcam). […] Expression of β-actin and histone H1 were assessed as an internal loading control for total cell lysate and nuclear protein lysate respectively."}, "PC-3 cells": {"system": "PC-3 cells", "assay": "Flow cytometry and western blotting, PC-3 cells", "assay_type": "cell-based, human", "description": "1.1.3 Flow cytometry—Cell cycle distribution was examined using flow cytometry. Briefly, cells were harvested by trypsinization, fixed in 70% ethanol at 4° C. overnight, and then resuspended in PBS. After incubation at 4° C. for overnight, 2×10^6 cells were incubated with in 20 μg/ml propidium iodide (PI) and 2 mg RNaseA for 15 minutes at 37° C. Cells were then examined by BD SLRII cytometer and the results were analyzed using ModFit software (Becton Dickinson, Mountain View, Calif.). Data were expressed as the percentage of cell cycle distribution in the entire population.\n1.1.5 Western blotting—Detailed protocols have been described previously and are known in the art. Briefly, cell lysates were prepared by suspending cell pellets in lysis buffer [50 mmol/l Tris-HCl (pH 8.0), 150 mmol/l NaCl, 1% NP40, 0.5% deoxycholate, 0.1% SDS, 1 mg/ml aprotinin, 1 μg/ml leupeptin and 1 mmol/l phenylmethylsulfonyl fluoride]. For nuclear protein extraction, NucBuster™ protein extraction kit was used. Protein concentration was measured using the DC Protein Assay kit (Bio-Rad, Hercules, Calif.). Equal amount of protein (30 μg) was loaded onto a 10% SDS polyacrylamide gel for electrophoresis and then transferred onto a polyvinylidene difluoride membrane (Amersham, Piscataway, N.J.). The membrane was then incubated with primary antibodies for 1 hr at room temperature against E-cadherin (BD Biosciences, Bedford, Mass.), α-catenin, β-catenin, γ-catenin, Id-1, Id-3, EGFR, phosphor-c-jun, phosphor-ATF2, cleaved PARP, vimentin, α-smooth muscle actin, twist (Santa Cruz Biotechnology, Calif.), phosphor-IkB-alpha (Ser32/36), phosphor-IKK alpha (Seri 80)/IKK beta (Ser181), phosphor-SAPK/JNK (Thr183/Tyr185) G9, SAPK/JNK, NF-kB p65 (5A5) (Cell Signaling Technology Inc, Beverly, Mass.), Snail (Abcam). After incubation with appropriate secondary antibodies, signals were visualized by ECL western blotting system (Amersham, Piscataway, N.J.). Expression of β-actin and histone H1 were assessed as an internal loading control for total cell lysate and nuclear protein lysate respectively.\n2.1.4 Flow cytometry was carried out as described above under item 1.1.3. Matrigel-invasion assay was carried out as described above under item 1.1.4. Western blotting was carried out as described above under item 1.1.5."}, "[1]": {"assay": "γ-T3 level in tumors and organs by HPLC", "assay_type": "in vivo, BALB/c athymic nude mice", "conditions": "50 mg/kg/day γ-T3 for 10 days", "description": "Nude mice bearing similar tumor sizes of about 100 mm^3 (after 2 weeks inoculation) were selected and randomly divided into three groups (n=5 per group); control (DMSO as vehicle), γ-T3 (50 mg/kg/d) and combination treatment of γ-T3 and Docetaxel (50 mg of γ-T3/kg/d and 7.5 mg of Docetaxel/kg/wk). The mice were weighed as daily basic and the tumors were measured using a Digital Carbon Fiber Caliper (Fisher scientific, Pittsburgh, Pa.) at the same time. The tumor volume was calculated as 4/3*π*(mean diameter/2)^3. The mice were dosed 5 times a week for 2 weeks. After 10 days of treatment, the mice were euthanized by CO2 inhalation. Blood samples were collected through cardiac bleeding using 25-gauge needle. Blood samples were incubated at room temperature for 30 min, followed by centrifugation at 4400 rpm, 4° C. for 30 min. Serum, as the supernatant, was separated from plasma and stored at −80° C. Tumor, liver, kidney, spleen, lung and heart were harvested. Part of the tumors was fixed in 10% neutral buffered formalin solution. […]\n4.1.7 Determination of γ-Tocotrienol level by high performance liquid chromatography—A normal phase of HPLC method was performed as a modification of procedures known in the art. […] The absorbance of γ-T3 was monitored with a […] set at an excitation wavelength of 290 nm and emission wavelength of 360 nm."}, "DU145 cells": {"system": "DU145 cells", "assay": "Spheroid formation assay, DU145 cells", "assay_type": "cell-based", "description": "5.1.7 Spheroid formation assay—Spheroid formation assay was performed with a protocol modified from previous study (Folkins C, p3560). Briefly, cells were first trypsinized, washed with 1× PBS and resuspended in DMEM F12 medium. Two hundred cells were added into each well of a 24-well-plate pre-coated with polyHEMA (Sigma, St. Louis, Mo.). Cells will be grown in DMEM/F12 mem (Invitrogen, Carlsbad, Calif.) supplemented with 4 μg/mL insulin (Sigma, St. Louis, Mo.), B27 (Invitrogen, Carlsbad, Calif.), 20 ng/mL EGF (Sigma, St. Louis, Mo.), and 20 ng/mL basic FGF (Invitrogen, Carlsbad, Calif.). Fresh medium with the above supplements was added every day. γ-T3 was added at indicated time points and the number of spheroids was counted at day 14 of the assay or at the end of the treatment. Each experiment was repeated in triplicates and each data point represented the mean and standard derivation."}}}
{"smiles": "CC(C)=CCC/C(C)=C/CC/C(C)=C/CCC1(C)CCc2cc(O)c(C)c(C)c2O1", "note": "(stereo not drawn) [γ-T3, 7,8-dimethyltocotrienol]", "values": [{"measurement": "E-cadherin and γ-catenin protein expression", "setting": "G361 cells", "result": "up-regulated"}, {"measurement": "Snail and mesenchymal markers (vimentin, α-SMA and twist) expression", "setting": "G361 cells", "result": "down-regulated"}, {"measurement": "E-cadherin and γ-catenin protein expression", "setting": "PC-3 cells; PC-3", "result": "up-regulated"}, {"measurement": "JNK phosphorylation", "setting": "PC-3 cells; PC-3", "result": "dosage- and time-dependent increase in JNK phosphorylation activities"}, {"measurement": "NF-κB p65 activity (nuclear translocation)", "setting": "PC-3 cells; PC-3", "result": "suppressed constitutive NF-κB p65 activity in a dose-dependent and time-dependent manner"}, {"measurement": "Snail and mesenchymal markers (vimentin, α-SMA and twist) expression", "setting": "PC-3 cells; PC-3, 24 hrs", "result": "down-regulated"}, {"measurement": "activation of pro-apoptotic proteins (cleaved products)", "setting": "PC-3 cells; PC-3, 24 hrs", "result": "activation of procaspase 3, 7, 8, 9 as well as PARP"}, {"measurement": "EGF-R expression (Id-1 and Id-3 similar)", "setting": "PC-3 cells; PC-3, increasing dosages", "result": "significantly suppressed to almost undetectable level"}, {"measurement": "sub-G1 cell population (flow cytometry)", "setting": "PC-3 cells; γ-T3 IC50-95, 24 hrs", "result": "induction of sub-G1 cell population"}, {"measurement": "tumor γ-T3 amount relative to other internal organs", "setting": "[1]", "result": "at least two-fold"}, {"measurement": "γ-T3 concentration within the tumors", "setting": "[1]", "result": "0.15±0.03 mg of γ-T3 per gram of wet weight"}, {"measurement": "spheroid formation ability", "setting": "DU145 cells", "result": "almost completely suppressed"}]}
